Laboratory results reported in ChEMBL document CHEMBL1157056, “Synthesis and anti-inflammatory evaluation of some condensed [4-(3,4-dimethylphenyl)-1(2H)-oxo-phthalazin-2-yl]acetic acid hydrazide” (Eur J Med Chem, 2010).
Active and inactive are the calls of the source. The rule behind the calls is not given here.

System: Rattus norvegicus
Experiment: Antiinflammatory activity in rat at 20 mg/kg, ip after 10 days by sponge implantation method
Assay type: functional, organism-based
Design: dose 20 mg/kg

SMILES	Activity
Cc1ccc(-c2nn(CC(=O)N/N=C/NN)c(=O)c3ccccc23)cc1C	Active
CCO/C=N/NC(=O)Cn1nc(-c2ccc(C)c(C)c2)c2ccccc2c1=O	Active
Cc1ccc(-c2nn(Cc3n[nH]c(=S)o3)c(=O)c3ccccc23)cc1C	Active
CC1=NN(C(=O)Cn2nc(-c3ccc(C)c(C)c3)c3ccccc3c2=O)C(=O)C1	Active
Cc1ccc(-c2nn(CC(=O)NNC(=S)NCc3ccccc3)c(=O)c3ccccc23)cc1C	Active
